Experiments:
Experiment in all cases: KinomeScan profiling
Type in all cases: binding
ANKK1 = target: T1, ANKK1 (Homo sapiens, UniProt Q8NFD2); settings: ANKK1, 1 μM; read-out: % control
T1 construct: purchased KinomeScan®
T1 sequence (Q8NFD2 1-765): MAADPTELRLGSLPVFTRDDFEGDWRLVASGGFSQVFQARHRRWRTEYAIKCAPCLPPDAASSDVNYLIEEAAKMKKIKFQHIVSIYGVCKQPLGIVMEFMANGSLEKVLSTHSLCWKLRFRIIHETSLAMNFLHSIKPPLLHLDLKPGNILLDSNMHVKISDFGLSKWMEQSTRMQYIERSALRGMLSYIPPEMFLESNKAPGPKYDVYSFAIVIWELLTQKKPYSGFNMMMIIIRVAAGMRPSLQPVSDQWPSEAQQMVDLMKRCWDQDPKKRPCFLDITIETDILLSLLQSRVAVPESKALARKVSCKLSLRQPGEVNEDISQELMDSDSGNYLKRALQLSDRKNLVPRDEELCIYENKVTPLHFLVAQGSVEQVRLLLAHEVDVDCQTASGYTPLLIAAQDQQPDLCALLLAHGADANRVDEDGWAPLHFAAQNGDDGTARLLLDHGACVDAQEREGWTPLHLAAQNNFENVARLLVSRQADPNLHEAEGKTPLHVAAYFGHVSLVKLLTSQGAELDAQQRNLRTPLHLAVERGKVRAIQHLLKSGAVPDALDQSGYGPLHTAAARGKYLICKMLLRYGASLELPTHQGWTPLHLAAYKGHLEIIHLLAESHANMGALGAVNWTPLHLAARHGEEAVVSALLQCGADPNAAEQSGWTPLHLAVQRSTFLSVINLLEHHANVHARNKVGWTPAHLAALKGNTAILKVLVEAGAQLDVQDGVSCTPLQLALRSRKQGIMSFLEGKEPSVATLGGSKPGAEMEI
Summary of the method: (§1)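 Compounds were screened at 1 μM in DMSO across a 468-kinase KinomeScan panel. Binding was expressed as % control, scaled between a positive control (0%) and DMSO (100%) using luminescence signal. A value under 35% counted as active.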

[1] = target: T2, ABL1(H396P)-nonphosphorylated (Homo sapiens, UniProt P00519, H396P); settings: read-out: % control
T2 construct: purchased KinomeScan®
Summary of the method: as §1

PDGFRB = PDGFRB (Homo sapiens, UniProt P09619); settings: read-out: % control
PDGFRB, sequence (P09619 33-1106): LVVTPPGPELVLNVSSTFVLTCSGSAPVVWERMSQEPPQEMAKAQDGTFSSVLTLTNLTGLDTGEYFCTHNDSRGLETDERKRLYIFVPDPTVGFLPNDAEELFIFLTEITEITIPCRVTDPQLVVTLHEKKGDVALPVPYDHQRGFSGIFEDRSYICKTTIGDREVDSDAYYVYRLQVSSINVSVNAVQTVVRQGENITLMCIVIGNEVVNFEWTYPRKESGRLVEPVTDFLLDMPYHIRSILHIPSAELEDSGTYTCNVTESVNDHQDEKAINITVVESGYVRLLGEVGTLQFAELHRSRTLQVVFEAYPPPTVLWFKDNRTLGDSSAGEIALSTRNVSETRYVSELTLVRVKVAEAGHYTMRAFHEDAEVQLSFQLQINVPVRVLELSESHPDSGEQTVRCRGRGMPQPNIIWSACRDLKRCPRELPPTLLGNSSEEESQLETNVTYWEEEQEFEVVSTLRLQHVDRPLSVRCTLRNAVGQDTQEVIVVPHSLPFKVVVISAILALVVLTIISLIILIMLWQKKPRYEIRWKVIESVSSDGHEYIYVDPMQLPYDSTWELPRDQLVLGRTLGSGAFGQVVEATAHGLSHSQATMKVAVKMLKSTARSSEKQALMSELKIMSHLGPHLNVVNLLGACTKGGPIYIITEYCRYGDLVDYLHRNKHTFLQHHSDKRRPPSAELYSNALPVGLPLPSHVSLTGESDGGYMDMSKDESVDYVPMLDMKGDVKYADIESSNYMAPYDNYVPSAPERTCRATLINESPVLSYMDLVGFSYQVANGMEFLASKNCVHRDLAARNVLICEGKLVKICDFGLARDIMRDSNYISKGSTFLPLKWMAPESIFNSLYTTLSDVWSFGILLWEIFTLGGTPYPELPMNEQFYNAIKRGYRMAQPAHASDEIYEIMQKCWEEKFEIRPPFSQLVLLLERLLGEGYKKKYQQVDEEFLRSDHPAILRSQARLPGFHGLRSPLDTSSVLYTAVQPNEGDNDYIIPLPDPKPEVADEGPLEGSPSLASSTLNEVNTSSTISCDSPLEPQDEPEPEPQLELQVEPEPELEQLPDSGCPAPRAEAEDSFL
Summary of the method: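 1 μM cpd in DMSO; 468-kinase panel; readout RLU. % ctrl = (cpd − pos ctrl)/(neg ctrl − pos ctrl) ×100. Pos ctrl = 0%, DMSO = 100%. Hit cut-off <35%.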

PHKG1 = PHKG1 (Homo sapiens, UniProt Q16816); settings: PHKG1, 1 μM; read-out: % control
PHKG1, sequence (Q16816 whole entry): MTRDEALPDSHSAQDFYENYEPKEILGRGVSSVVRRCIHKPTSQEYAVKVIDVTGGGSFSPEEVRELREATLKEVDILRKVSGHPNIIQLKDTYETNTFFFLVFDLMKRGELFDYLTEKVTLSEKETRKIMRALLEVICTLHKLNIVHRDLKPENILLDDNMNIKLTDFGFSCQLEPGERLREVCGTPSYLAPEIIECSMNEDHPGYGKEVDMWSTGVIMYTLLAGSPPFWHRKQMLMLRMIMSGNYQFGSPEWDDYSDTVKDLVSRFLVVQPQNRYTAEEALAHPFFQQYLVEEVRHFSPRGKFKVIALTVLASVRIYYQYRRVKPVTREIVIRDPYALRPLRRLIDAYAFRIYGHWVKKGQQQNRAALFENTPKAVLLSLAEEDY
Summary of the method: as §1

EPHB4 = target: T3, EPHB4 (Homo sapiens, UniProt P54760); settings: EPHB4, 1 μM; read-out: % control
T3 sequence (P54760 16-987): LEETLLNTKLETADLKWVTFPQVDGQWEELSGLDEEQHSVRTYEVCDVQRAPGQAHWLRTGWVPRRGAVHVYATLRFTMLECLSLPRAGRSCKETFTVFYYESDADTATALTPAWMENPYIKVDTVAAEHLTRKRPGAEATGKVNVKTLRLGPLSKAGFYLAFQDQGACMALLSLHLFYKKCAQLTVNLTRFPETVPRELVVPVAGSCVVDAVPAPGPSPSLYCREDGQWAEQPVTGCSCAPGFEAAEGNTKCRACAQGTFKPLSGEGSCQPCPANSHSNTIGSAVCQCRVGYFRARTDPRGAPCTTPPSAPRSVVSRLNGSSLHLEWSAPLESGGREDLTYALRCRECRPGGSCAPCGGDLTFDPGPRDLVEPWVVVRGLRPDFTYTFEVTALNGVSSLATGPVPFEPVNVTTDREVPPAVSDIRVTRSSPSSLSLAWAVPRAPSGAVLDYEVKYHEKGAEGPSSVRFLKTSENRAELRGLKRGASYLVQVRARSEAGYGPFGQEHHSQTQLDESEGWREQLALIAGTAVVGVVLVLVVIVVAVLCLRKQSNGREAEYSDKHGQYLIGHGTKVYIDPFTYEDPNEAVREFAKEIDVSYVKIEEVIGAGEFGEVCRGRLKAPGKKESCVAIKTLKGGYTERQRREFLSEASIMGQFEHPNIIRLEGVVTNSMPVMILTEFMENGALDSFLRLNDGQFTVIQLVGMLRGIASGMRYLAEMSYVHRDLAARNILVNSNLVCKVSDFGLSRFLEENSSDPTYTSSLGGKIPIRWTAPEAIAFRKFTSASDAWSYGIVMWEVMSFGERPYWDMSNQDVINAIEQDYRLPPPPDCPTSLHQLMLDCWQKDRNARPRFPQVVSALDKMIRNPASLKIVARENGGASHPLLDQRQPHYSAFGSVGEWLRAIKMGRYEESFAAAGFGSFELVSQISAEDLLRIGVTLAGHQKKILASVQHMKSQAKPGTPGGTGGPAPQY
Summary of the method: as §1

[2] = target: T4, ABL1(T315I)-nonphosphorylated (Homo sapiens, UniProt P00519, T315I); settings: read-out: % control
T4 construct: purchased KinomeScan®
Summary of the method: as §1

[3] = target: T5, ABL1(H396P)-phosphorylated (Homo sapiens, UniProt P00519, H396P); settings: read-out: % control
T5 construct: purchased KinomeScan®
Summary of the method: as §1

SMILES | remaining binding at 1 µM (ANKK1) [%] | remaining binding at 1 µM [1] [%] | remaining binding at 1 µM (PDGFRB) [%] | remaining binding at 1 µM (PHKG1) [%] | remaining binding at 1 µM (EPHB4) [%] | remaining binding at 1 µM [2] [%] | remaining binding at 1 µM [3] [%]
CNc1c(-c2cnn([C@H]3CCN(C(C)=O)C[C@@H]3F)c2)cnc2[nH]cc(Cl)c12 [Compound 77, 1-((3S,4S)-4-(4-(3-chloro-4-(methylamino)-1H-pyrrolo[2,3-b]pyridin-5-yl)-1H-pyrazol-1-yl)-3-fluoropiperidin-1-yl)ethan-1-one] | 73 | 36 | 20 | 100 | 100 | 100 | 81
O=C(c1ccc(-c2cnc3[nH]cc(Cl)c3c2NC2CCCC2)cc1)N1CCC(N2CCOCC2)CC1 [Compound 101, (4-(3-chloro-4-(cyclopentylamino)-1H-pyrrolo[2,3-b]pyridin-5-yl)phenyl)(4-morpholinopiperidin-1-yl)methanone] | 100 | 100 | 83 | 87 | 62 | 85 | 100
CNc1c(-c2ccc(C(=O)N3CCC(N4CCOCC4)CC3)cc2)cnc2[nH]cc(Cl)c12 [Compound 96, (4-(3-chloro-4-(methylamino)-1H-pyrrolo[2,3-b]pyridin-5-yl)phenyl)(4-morpholinopiperidin-1-yl)methanone] | 51 | 76 | 21 | 86 | 100 | 100 | 100
